# Test system: sclerostin
# Test: Irisin injection in mice: sclerostin mRNA in osteocyte-enriched bones and plasma sclerostin protein (ELISA)
# Format: in vivo
# Conditions: co-injection of 1 mg/kg inhibitor with irisin
# Method: 8 weeks old mice were injected daily with indicated dose of irisin for 6 days. […] were collected and treated with collagenase to yield osteocyte-enriched bones. Sclerostin mRNA level from osteocyte-enriched tibia was analyzed by qPCR (FIG. 7A). Cyclophilin was used as a house-keeping gene. Plasma was collected to analyze the circulating sclerostin protein level by ELISA assay (FIG. 7B). Data are represented as mean±SEM. For FIG. 7A and FIG. 7B, n=5 animals/group. * indicates p<0.05, and *** indicates p<0.001.
# Certain materials and methods were used to generate the results described herein. For example, the data shown in FIG. 1A resulted from MLO-Y4 (an osteocyte-like cell line) cells treated with the indicated concentration of irisin and hydrogen peroxide for 4 hours. Cells were stained with Hoechst 33342 (ThermoFisher Scientific, catalog number H3570) and Eth-D1 (ThermoFisher Scientific, catalog number E1169) and analyzed to determine the percentage of cell death using ImageJ. […] Co-precipitated irisin was analyzed by immunoblot analysis against flag tag (Sigma Aldrich, catalog number A8592). The data shown in FIGS. 5A and 5B were generated from MLO-Y4 cells treated and analyzed as in the experiments used to generate the data shown in FIG. 2D, except that pre-treatment of 100 nM RGDS (FIG. 5A) or echistatin (R & D Systems Inc., catalog number 3202/100U) (FIG. 5B) for 10 minutes was performed before irisin treatment. […] RNAs were extracted from the cells and the sclerostin mRNA level was analyzed by qPCR (FIG. 6A) or treated and analyzed as in (FIG. 6A), except that pre-treatment of 10 μM RGDS, RGDyK (Selleck, catalog number S7844), or echistatin was performed for 10 minutes before irisin treatment. […] Sclerostin mRNA level was analyzed by qPCR (FIG. 7A). […] Epididymal fats were collected, RNAs were extracted from the tissues, and mRNA levels of the indicated genes were analyzed by qPCR. […]
smiles,measurement,value
N=C(N)NCCC[C@@H]1NC(=O)[C@H](CCCCN)NC(=O)[C@@H](Cc2ccc(O)cc2)NC(=O)[C@H](CC(=O)O)NC(=O)CNC1=O [cyclo RGDyK],effect on irisin-induced gene expression of sclerostin in osteocyte-enriched bones,prevented
same,effect on irisin-induced sclerostin protein level in plasma,prevented

# From patent US20210063414A1, “METHODS FOR PREVENTING AND/OR TREATING BONE LOSS CONDITIONS BY MODULATING IRISIN” (Dana-Farber Cancer Institute, Inc., priority 2018, published 2021)
